Columns and labels:
HepG2 cells [1] = assay: Colorimetric (ONPG) β-galactosidase assay of cell extracts; format: cell-based, human
Procedure: Adherent cell lines were seeded one day prior to infection. Cells were exposed to virus in 2 ml of medium for 90 minutes, and then the virus-containing medium was removed and replaced with fresh medium. Mock-infected cells were treated with 2 ml medium lacking the viral inoculum.
To measure expression of the reporter gene in the infected cells, colorimetric assays of β-galactosidase enzymatic activity were performed with standard methods (Norton et al., 1985, Molecular & Cellular Biology 5:281-290). Other conventional methods for measuring β-galactosidase activity could be used in lieu of the methods employed in this example. Cell extracts were prepared at one day post-infection. Cell monolayers were rinsed three times with PBS, scraped from the dish, and collected by low-speed centrifugation. The cell pellets were resuspended in 25 mM Tris pH 7.4/0.1 mM EDTA and then subjected to three cycles of freezing in liquid nitrogen and thawing in a 37° C. water bath. The extracts were then clarified by centrifugation at 14,000×g for 5 minutes. Standard conditions for assaying β-galactosidase activity utilized 0.1 ml of cell extract, 0.8 ml of PM-2 buffer, and 0.2 ml of […] (4 mg/ml) in PM-2 buffer for 10 minutes at 37° C. (Norton et al., 1985, Mol. & Cell. Biol. 5:281-290). The reaction was stopped by the addition of 0.5 ml of 1 M sodium carbonate. The amount of substrate hydrolyzed was detected spectrophotometrically at 420 nm, and β-galactosidase enzymatic activity was calculated with conventional methods (Norton et al., 1985, Mol. & Cell. Biol. 5:281-290). The assay was verified to be linear with respect to extract concentration and time. Extract protein concentrations were determined using the Coomassie Plus protein assay (Pierce) with bovine serum albumin as a standard, and the level of β-galactosidase activity was expressed as units of β-galactosidase activity per mg of protein. Other standard protein assays can be used, if desired.
Baculovirus-mediated Gene Transfer is Inhibited by Lysomotropic Agents: To gain insight into the mechanism by which baculoviruses express an exogenous gene in a mammalian cell, the susceptibility of gene expression to a lysomotropic agent was examined. Like other enveloped viruses, the budded form of AcMNPV normally enters cells via endocytosis, followed by low pH-triggered fusion of the viral envelope with the endosomal membrane, thus allowing escape into the cytoplasm (Blissard et al., 1993, J. Virol. 66:6829-6835; Blissard et al., 1990, Ann. Rev. of Entomol. 35:127-155). To determine whether endosome acidification was necessary for baculovirus-mediated gene transfer into mammalian cells, HepG2 cells were infected with RSV-lacZ AcMNPV in the presence of chloroquine, a lysomotropic agent. HepG2 cells were exposed to AcMNPV virus in media containing or lacking inhibitor for 90 minutes, then the virus-containing media were removed and replaced with fresh media containing or lacking inhibitors as listed.
At one day post-infection, the cells were harvested and extracts were assayed for β-galactosidase activity and protein content. Each value in the table represents the average of three independent assays, with the amount of β-galactosidase produced by the RSV-lacZ AcMNPV virus in the absence of inhibitors assigned a value of 100%. β-galactosidase activity was normalized for protein content of each extract. […]

HepG2 cells [2] = format: cell-based, human; settings: moi 100
Rat Hepatocytes = assay: Colorimetric (ONPG) β-galactosidase assay of cell extracts; settings: background subtracted
[3] = tested on: VGZ3-treated mammalian cells; assay: Inhibition of β-galactosidase expression in VGZ3-treated cells; format: cell-based; settings: data not shown

Albumin
Promoter strength, Hep G2 −butyrate (HepG2 cells [1]; moi 100, 24 hours, mock background subtracted): 0.0 ± 0.0 Units/mg
Promoter strength, Hep G2 +butyrate (HepG2 cells [1]; moi 100, sodium butyrate added 2 hours after infection, 24 hours, background subtracted): 0.08 ± 0.04 Units/mg
X-gal staining of cells not treated with butyrate (HepG2 cells [2]): positively stained cells were detected
Promoter strength, Rat Hepatocytes −butyrate (Rat Hepatocytes): 0.15 ± 0.08 Units/mg

CCN(CC)CCCC(C)Nc1ccnc2cc(Cl)ccc12 (stereo not drawn) [chloroquine]
effect on de novo expression of β-galactosidase (HepG2 cells [1]; 25 μM continuously present during and after exposure to virus): completely prevented
effect on β-galactosidase expression (HepG2 cells [1]; added 90 minutes after exposure to the virus): only partial inhibition
effect on β-galactosidase expression in VGZ3-treated mammalian cells [3]: inhibited β-galactosidase expression

C[C@@H]1C[C@@H]([C@H](O)CC2CC(=O)NC(=O)C2)C(=O)[C@@H](C)C1 [cycloheximide]
inhibition of accumulation of β-galactosidase enzyme activity (HepG2 cells [1]; HepG2 infected with RSV-lacZ virus, drug after infection): more than 90%
effect on β-galactosidase expression in VGZ3-treated mammalian cells [3]: inhibited β-galactosidase expression

Reference: patent publication US6338953B1, “Expression of an exogenous gene in a mammalian cell by use of a non-mammalian DNA virus having an altered coat protein” (The General Hospital Corporation, priority 1996, dated 2002)
